Assay results taken from patent publication US20110236409A1, “O[…] FROM VARIABLE ANTIGENS, T CELL POPULATIONS AND USES THEREOF” (Helmholtz Zentrum München - Deutsches Forschungszentrum für …, priority 2008, published 2011).

How the values were obtained:
Type in all cases: cell-based, human
[1] = system: T-cell response of HIV-1 infected individuals; test: Mapping of Tat- and Nef-specific T-cell responses to single VOPSD peptides in cohorts of HIV-1 infected individuals (Elite Controllers)
[2] = system: Nef specific CD4 and CD8 T-cells (PBMC); test: Intracellular cytokine staining (IFN-γ) of CD4 and CD8 T cells, Nef peptides; conditions: subject V4; B8 restricted
Description: (§1) After thawing, PBMC were washed trice at room temperature in complete cell culture medium and plated in round bottom 96 wells/plates. All the incubations were carried out in round bottom 96 wells/plates to allow high throughput processing of the probes. 10^6 PBMC/well were incubated with 1.3 μg/ml of antibody to CD28 and with 1.3 μg/ml of antibody to CD49d (Becton Dickinson, Heidelberg, Germany) together with defined peptide pools. For each individual, a sample without peptides was included to calculate the background staining. Following one-hour incubation, 10 μg/ml of Brefeldin A were added to the cell suspension and the incubation carried out for additional 4 hours. Stimulated cells were then resuspended in Stain Buffer (0.2% BSA, 0.09% Na Azide in DPBS; Becton Dickinson) and incubated with the photoreactive fluorescent label ethidium monoazide (EMA; Molecular Probes, Leiden, The Netherlands) used as viability dye. After washing, cells were fixed and permeabilized using the BD Cytofix/Cytoperm™ Kit, (Becton Dickinson). […]
(§2) Following background subtraction, the threshold level was calculated using the 90 percentile of the negative values. […]
In this way, the authors could establish whether the higher number of individual responses measured with the new set of overlapping peptides was restricted to the CD8 compartment or interested also CD4 T-cell recognition.

[3] = system: CD45RA+ IFN-γ− IL-2− MIP-1β+ CD8 T-cells; test: Polychromatic intracellular cytokine staining, detection of CD45RA+ IFN-γ− IL-2− MIP-1β+ CD8 T-cells; conditions: subject V4
Description: as §1, with “Dickinson). Then, the following fluorochrome-conjugated antibodies were added to the cell suspension: CD3-AmCyan, CD4-PerCP, CD45RA-PECy7, CD154-FITC, IFNγ-A1700, IL2-APC and MIP1β-PE from Becton Dickinson and CD8-PacB from DAKO (Hamburg, Germany).” for “Dickinson).”
as §2

[4] = system: Peripheral blood mononuclear cells (PBMC) of HIV-1 infected individuals; test: Ex vivo ELISPOT assay for single-cell IFN-γ release, HIV-infected individuals; conditions: patient HSR-028
Description: Peripheral blood mononuclear cells (PBMC) were seeded in duplicate at 2×10^5 cells/well in 96-well plates (MAIPS4510; Millipore, Bedford, Mass.) precoated with anti-IFN-γ capture monoclonal antibody (B-B1; Diaclone, Besancon, France) and stimulated with the different peptide pools at the fixed concentration of 3 μg/ml of each peptide for 18 h at 37° C. in air plus 5% CO2. Biotinylated anti-IFN-γ detection monoclonal antibody (B-G1; Diaclone) was added for 2 h, followed by the addition of streptavidin-alkaline phosphatase conjugate (Amersham Pharmacia Biotech Europe GmbH, Freiburg, Germany) for 1 h. A chromogenic substrate (nitroblue tetrazolium-BCIP [5-bromo-4-chloro-3-indolylphosphate]; Sigma, St. Louis, Mo.) was added for 10 min. The individual spots were counted by using an Automated ELISA-Spot Assay Video Analysis System, Eli-Scan with the software Eli.Analyse V4.2 (A.EL.VIS, Hannover, Germany).
The responses were empirically scored as positive if the test wells contained a mean number of spot-forming cells (SFC) higher than the mean value plus two standard deviations in negative control wells, and if the number of SFC per million PBMC in stimulated wells (subtracted of the values of negative control wells) was ≧50. PBMC in medium alone were used to establish the negative control background, that had to be not higher than 50 SFC per million of cells (10 SFC/well). […]

[5] = Controllers Upon Suspension (CUS)

VLEWRFDSRLAFHHVAREL [peptide 5.29]
individuals recognizing the peptide ([1]; Elite Controllers (EC)): 7/13 | immunodominant response in groups other than EC ([1]; all other groups of HIV-1 infected individuals): not for any of the all the other groups of HIV-1 infected individuals

FLKEKGGL
CD8 T-cell response to the epitope [2]: strong CD8 T-cell response | detection of CD45RA+ IFN-γ− IL-2− MIP-1β+ CD8 T-cells [3]: detected

EPVDPRLEPWKHPGSQPKTA [20mer homolog, 20mer homolog of VOPSD Tat peptide 1 from the standard Tat 20mer set, reference compound]
peptide concentration of maximal recognition (single peptide titration) [4]: recognized only at the highest concentration tested

KKCCFHCQVCFITKALGI [peptide 2.5]
individuals recognizing the peptide ([1]; CHI w T): 1/15 | individuals recognizing the peptide [1, 5]: 1/5 | individuals recognizing the peptide ([1]; Elite Controllers (EC)): 4/13 | individuals recognizing the peptide ([1]; LTNP): 1/6

MEPVDPRLEPW [VOPSD Tat peptide 1]
peptide concentration of maximal recognition (single peptide titration) [4]: 0.5 µM

QVCFITKALGISYGR [peptide 2.6]
individuals recognizing the peptide ([1]; CHI w T): 1/15 | individuals recognizing the peptide ([1]; CHI w/o T): 1/13 | individuals recognizing the peptide [1, 5]: 1/5 | individuals recognizing the peptide ([1]; Elite Controllers (EC)): 7/13

LEPWKHPGSQPKTACTNCY [peptide 2.2]
individuals recognizing the peptide ([1]; Elite Controllers (EC)): 5/9
